Structures can show the parent of a compound that is named as a salt.

Holding throughout (type): biochemical
One test concerns the target T1, human α-thrombin (Homo sapiens, UniProt P00734).
T1 construct: enzyme (human α-thrombin (BioPharm® Lab.)) in assay buffer; purchased BioPharm® Lab
In words: Enzymatic assay for thrombin (fluorogenic peptide substrate Boc-VPR-AMC). The procedure, abridged:
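Assay conditions kept the reaction linear in time, enzyme and substrate, so IC50 approximated Ki apart from tight- or slow-binding cases. Boc-VPR-AMC cleavage by human α-thrombin proceeded 20 min at room temperature in Hepes pH 7.4/NaCl/Tween 20 buffer, then was acid-quenched and read by fluorescence.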

The next test concerns the target T2, MASP-2 (CCP1-CCP2-SP) (Homo sapiens, UniProt O00187).
T2 construct: 15 μL of Enzyme MASP-2 (CCP1-CCP2-SP) in Assay Buffer
In words: Enzymatic assay for MASP-2 inhibitory activity (fluorogenic substrate). The procedure, abridged: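 Fluorescence was normalized between no-enzyme and DMSO-only controls to derive % activity, with IC50 taken as equivalent to Ki except for tight-binding inhibitors. Reactions ran 20 min at room temperature in HEPES pH 7.4/NaCl/Tween 20 buffer, using the C2-derived fluorogenic substrate, before acetic acid stop.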

In test [1] the test system is Lectin Pathway Activation in human serum. Kind of test: Lectin Pathway Activation (LPA) assay in human serum, mannan-coated ELISA plate, C4c detection. The conditions noted are these: 1% human serum, read-out: LPA Functional Activity (IC50). The method, then: Lectin Pathway Activation (LPA) Assay in Human Serum Treated with Compounds
A microtiter ELISA plate was coated with mannan (1 mg/ml) from Saccharomyces cerevisiae (Sigma-Aldrich®, M7504) overnight at 4° C. in coating buffer [33.3 mM Na2CO3, 166.67 mM NaHCO3]. The plate was blocked with 5% bovine serum albumin (BSA) (Sigma-Aldrich®, A3294) in 1×PBST [Phosphate Buffered Saline Solution (1.06 mM KH2PO4, 155.2 mM NaCl, 2.97 mM Na2HPO4^−·7H2O, pH 7.4), 0.05% Tween-20] shaking for 2 hours at room temperature. 1% human serum was incubated with serial dilutions of small compounds in 1× LPA+ Buffer [20 mM Hepes, pH 7.4, 140 mM NaCl, 2 mM MgCl2 (6H2O)] and incubated for 5 minutes at room temperature. 40 μL of this mixture was then added to the plate, and the plate was incubated at room temperature for 55 mins. Next, the reaction was stopped by adding 20 μL of EDTA Stop Solution [20 mM Hepes, pH7.4, 140 mM NaCl, 150 mM EDTA] to the plate. The plate was then washed 10× in wash buffer 1×PBST; 40 μL of Rabbit Anti Human C4c Antibody [Dako®, Q0369] diluted 1:20000 in wash buffer was added; and the plate was incubated shaking at room temperature for 30 minutes. The plate was washed [5× times]; 40 μL of Goat Anti-rabbit Antibody-HRP Conjugate [Southern Biotech®, 4050-05] diluted 1:10000 in wash buffer was added; and the plate was incubated shaking at room temperature for 30 minutes. After that, the plate was washed five times; 40 µL/well of Amplex® UltraRed Substrate Solution [1× LPA Buffer, 10 mM Amplex® UltraRed Stock Solution [Thermo Fisher Sci.®, A36006], 3% stabilized hydrogen peroxide [Sigma Aldrich®, 216763] was added; the plate was incubated at room temperature for 16 minutes; the reaction was stopped by adding 8 µL/well of Amplex® UltraRed Stop Solution [Thermo Fisher Sci.®, A33855] in 100% EtOH. Finally, the plate was read for fluorescence at Ex: 550 nm, Em: 580 nm on the i3x Microplate Reader.

T2 sequence (O00187 445-686 limits assumed): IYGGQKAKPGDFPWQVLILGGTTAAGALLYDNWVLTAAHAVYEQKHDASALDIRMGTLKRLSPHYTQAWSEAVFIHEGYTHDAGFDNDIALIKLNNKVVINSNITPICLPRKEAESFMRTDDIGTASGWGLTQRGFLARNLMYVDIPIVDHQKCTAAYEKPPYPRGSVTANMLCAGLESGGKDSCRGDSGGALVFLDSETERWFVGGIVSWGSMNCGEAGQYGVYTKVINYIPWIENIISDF
T2 sequence (O00187 287-444 partner limits assumed): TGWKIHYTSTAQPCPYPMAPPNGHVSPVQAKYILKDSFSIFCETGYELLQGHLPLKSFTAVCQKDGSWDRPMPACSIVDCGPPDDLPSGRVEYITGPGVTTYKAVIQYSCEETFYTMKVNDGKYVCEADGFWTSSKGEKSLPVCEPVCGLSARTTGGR

As for `O=C(NCc1cc2c(s1)CNC2)[C@@H]1CCc2cnc(N[C@H]3CCc4ccc(-c5ccccc5)cc43)c(=O)n21` [Compound 257], the inhibitory constant (Ki) at human α-thrombin and on MASP-2 (CCP1-CCP2-SP) was under 500 nM throughout. Moreover, the concentration for half-maximal inhibition (IC50) – broadly, the point on the concentration scale where inhibition reaches its midpoint – in test [1] is under 50 nM.

Take `COc1cc(C)cc(CNc2ncc3n(c2=O)[C@H](C(=O)N[C@H](C)c2ccc(N)nc2)CC3)c1` [Compound 194, (S)-N-((R)-1-(6-aminopyridin-3-yl)ethyl)-3-((3-methoxy-5-methylbenzyl)amino)-4-oxo-4,6,7,8-tetrahydropyrrolo[1,2-a]pyrazine-6-carboxamide trifluoroacetate]: the Ki (as a rule, the dissociation constant of the complex between target and ligand, obtained from inhibition or displacement) at human α-thrombin was 2500 to 10000 nM; at MASP-2 (CCP1-CCP2-SP) it was under 500 nM. Moreover, in test [1], the IC50 was under 50 nM.

On to `Cc1cc(C)cc(CNc2ncc3n(c2=O)[C@H](C(=O)NCc2ccnc(N)c2)CC3)c1` [Compound 88, (S)-N-((2-aminopyridin-4-yl)methyl)-3-((3,5-dimethylbenzyl)amino)-4-oxo-4,6,7,8-tetrahydropyrrolo[1,2-a]pyrazine-6-carboxamide], for which the Ki on human α-thrombin and on MASP-2 (CCP1-CCP2-SP) was under 500 nM in each case. The 50% inhibitory concentration (IC50) in test [1] was 50 to 500 nM.

For the compound `O=C(NCc1cc2cnccc2[nH]1)[C@@H]1CCc2c(C3=CCOCC3)nc(NCc3ccccc3)c(=O)n21` [Compound 120, (S)—N-((1H-pyrrolo[3,2-c]pyridin-2-yl)methyl)-3-(benzylamino)-1-(3,6-dihydro-2H-pyran-4-yl)-4-oxo-4,6,7,8-tetrahydropyrrolo[1,2-a]pyrazine-6-carboxamide], the inhibitory constant (Ki) was over 25000 nM on human α-thrombin and under 500 nM on MASP-2 (CCP1-CCP2-SP). Further, the half-maximal inhibitory concentration (IC50) in test [1] is under 50 nM.

As for `Cc1nc(N)ccc1CNC(=O)[C@@H]1CCc2c(Cl)nc(NCCc3cccnc3)c(=O)n21` [Compound 240], the inhibition constant (Ki) at human α-thrombin and at MASP-2 (CCP1-CCP2-SP) was under 500 nM each time. In addition, in test [1], the 50% inhibitory concentration (IC50) was in the range of 50 to 500 nM.

On to `Cc1nc(N)ccc1CNC(=O)[C@@H]1CCc2c(Cl)nc(NCc3ccccc3)c(=O)n21` [Compound 131, (S)-N-((6-amino-2-methylpyridin-3-yl)methyl)-3-(benzylamino)-1-chloro-4-oxo-4,6,7,8-tetrahydropyrrolo[1,2-a]pyrazine-6-carboxamide], for which the inhibition constant Ki was 500 to 2500 nM at human α-thrombin and under 500 nM on MASP-2 (CCP1-CCP2-SP). Besides, in test [1], the half-inhibitory concentration (IC50) is under 50 nM.

Turning to `Cc1cc(F)cc(CNc2ncc3n(c2=O)[C@H](C(=O)NCc2ccc(CN)cc2)CC3)c1` [Compound 181, (S)—N-(4-(aminomethyl)benzyl)-3-((3-fluoro-5-methylbenzyl)amino)-4-oxo-4,6,7,8-tetrahydropyrrolo[1,2-a]pyrazine-6-carboxamide trifluoroacetate], the Ki at human α-thrombin is 2500 to 10000 nM; at MASP-2 (CCP1-CCP2-SP), under 500 nM. Besides, the 50% inhibitory concentration (IC50) in test [1] was 50 to 500 nM.

Consider `CC1(C)C[C@@H](C(=O)NCc2cc3cnccc3[nH]2)n2c1cnc(NCc1ccccc1)c2=O` [Compound 228, trifluoroacetate], for which the values for the Ki on human α-thrombin and at MASP-2 (CCP1-CCP2-SP) were 2500 to 10000 nM and under 500 nM, respectively. Also, in test [1], the half-maximal inhibitory concentration (IC50) was under 50 nM.

Regarding `Cc1ccc(CNc2nc(Cl)c3n(c2=O)[C@H](C(=O)NCc2ccc(N)nc2C)CC3)cc1C` [Compound 27, (S)-N-((6-amino-2-methylpyridin-3-yl)methyl)-1-chloro-3-((3,4-dimethylbenzyl)amino)-4-oxo-4,6,7,8-tetrahydropyrrolo[1,2-a]pyrazine-6-carboxamide trifluoroacetate], the inhibition constant (Ki) at human α-thrombin was 2500 to 10000 nM; on MASP-2 (CCP1-CCP2-SP), under 500 nM. Also, in test [1], the IC50 was under 50 nM.

With `Cc1cc(F)cc(CNc2ncc3n(c2=O)[C@H](C(=O)NCc2cnc(N)c(C)c2)CC3)c1` [Compound 213, (S)—N-((6-amino-5-methylpyridin-3-yl)methyl)-3-((3-fluoro-5-methylbenzyl)amino)-4-oxo-4,6,7,8-tetrahydropyrrolo[1,2-a]pyrazine-6-carboxamide trifluoroacetate], the Ki at human α-thrombin and on MASP-2 (CCP1-CCP2-SP) was under 500 nM each time. In addition, the concentration for half-maximal inhibition (IC50) in test [1] lay in the range of 50 to 500 nM.

Regarding `Cc1cc(F)cc(CNc2ncc3n(c2=O)[C@H](C(=O)NCc2cc4cnc(C)cc4[nH]2)CC3)c1` [Compound 71, (S)-3-((3-fluoro-5-methylbenzyl)amino)-N-((6-methyl-1H-pyrrolo[3,2-c]pyridin-2-yl)methyl)-4-oxo-4,6,7,8-tetrahydropyrrolo[1,2-a]pyrazine-6-carboxamide], the Ki at human α-thrombin was 10000 to 25000 nM; at MASP-2 (CCP1-CCP2-SP) it was under 500 nM. For the same compound, the IC50 in test [1] was under 50 nM.

In the case of `C[C@@H](CNc1ncc2n(c1=O)[C@H](C(=O)NCc1cc3c(s1)CNC3)CC2)c1ccccc1` [Compound 276, (S)-N-((5,6-dihydro-4H-thieno[2,3-c]pyrrol-2-yl)methyl)-4-oxo-3-(((R)-2-phenylpropyl)amino)-4,6,7,8-tetrahydropyrrolo[1,2-a]pyrazine-6-carboxamide trifluoroacetate], the inhibition constant (Ki) at human α-thrombin and on MASP-2 (CCP1-CCP2-SP) was under 500 nM each time. In test [1], the IC50 was under 50 nM.

Take `O=C(NCc1cc2cnccc2[nH]1)[C@@H]1CCc2c(Cl)nc(NCc3cnccn3)c(=O)n21` [Compound 239]: the figures for the inhibition constant Ki on human α-thrombin and at MASP-2 (CCP1-CCP2-SP) were over 25000 nM and under 500 nM, respectively. The concentration for half-maximal inhibition (IC50) in test [1] fell in the range of 50 to 500 nM.

For `[2H]C([2H])([2H])c1nc(N)ccc1CNC(=O)[C@@H]1CCc2cnc(NCc3cc(C)cc(OC)c3)c(=O)n21` [Compound 226, (S)—N-((6-amino-2-(methyl-d3)pyridin-3-yl)methyl)-3-((3-methoxy-5-methylbenzyl)amino)-4-oxo-4,6,7,8-tetrahydropyrrolo[1,2-a]pyrazine-6-carboxamide], the Ki on human α-thrombin and on MASP-2 (CCP1-CCP2-SP) was under 500 nM each time. In test [1], the IC50 is under 50 nM.

As to `O=C(NCc1cc2c(s1)CNC2)[C@@H]1CCc2cnc(N[C@@H](c3ccccc3)C3CC3)c(=O)n21` [Compound 259, (S)-3-(((R)-cyclopropyl(phenyl)methyl)amino)-N-((5,6-dihydro-4H-thieno[2,3-c]pyrrol-2-yl)methyl)-4-oxo-4,6,7,8-tetrahydropyrrolo[1,2-a]pyrazine-6-carboxamide trifluoroacetate], the inhibition constant (Ki) at human α-thrombin and at MASP-2 (CCP1-CCP2-SP) was under 500 nM each time. Further, in test [1], the half-maximal inhibitory concentration (IC50) is under 50 nM.

`Cc1ccc(C(F)(F)F)cc1CNc1ncc2n(c1=O)[C@H](C(=O)N[C@H](C)c1ccc(N)nc1)CC2` [Compound 197, (S)-N-((R)-1-(6-aminopyridin-3-yl)ethyl)-3-((2-methyl-5-(trifluoromethyl)benzyl)amino)-4-oxo-4,6,7,8-tetrahydropyrrolo[1,2-a]pyrazine-6-carboxamide trifluoroacetate]: the values for the Ki at human α-thrombin and on MASP-2 (CCP1-CCP2-SP) were over 25000 nM and under 500 nM, respectively. The concentration for half-maximal inhibition (IC50) in test [1] is under 50 nM.

As to `CC[C@H]1C[C@@H](C(=O)NCc2cc3cnccc3[nH]2)n2c1cnc(NCc1cc(C)cc(C)c1)c2=O` [Compound 155, (6S,8S)-N-((1H-pyrrolo[3,2-c]pyridin-2-yl)methyl)-3-((3,5-dimethylbenzyl)amino)-8-ethyl-4-oxo-4,6,7,8-tetrahydropyrrolo[1,2-a]pyrazine-6-carboxamide], the inhibitory constant (Ki) on human α-thrombin and at MASP-2 (CCP1-CCP2-SP) was under 500 nM in each case. In addition, the IC50 in test [1] was under 50 nM.

As for `C[C@@H]1C[C@@H](C(=O)NCc2cc3cnccc3[nH]2)n2c1c(Cl)nc(NCc1ccccc1)c2=O` [Compound 230, (6S,8R)-N-((1H-pyrrolo[3,2-c]pyridin-2-yl)methyl)-3-(benzylamino)-1-chloro-8-methyl-4-oxo-4,6,7,8-tetrahydropyrrolo[1,2-a]pyrazine-6-carboxamide trifluoroacetate], the Ki at human α-thrombin is 500 to 2500 nM; on MASP-2 (CCP1-CCP2-SP), under 500 nM. Besides, the IC50 in test [1] lay in the range of 50 to 500 nM.

On to `Cc1ccc(F)c(CNc2ncc3n(c2=O)[C@H](C(=O)NCc2cc4cnccc4[nH]2)CC3)c1` [Compound 78, (S)-N-((1H-pyrrolo[3,2-c]pyridin-2-yl)methyl)-3-((2-fluoro-5-methylbenzyl)amino)-4-oxo-4,6,7,8-tetrahydropyrrolo[1,2-a]pyrazine-6-carboxamide], for which the inhibition constant (Ki) on human α-thrombin and on MASP-2 (CCP1-CCP2-SP) was under 500 nM in each case. Further, the IC50 in test [1] is under 50 nM.

For the origin of these results see patent US20250122225A1, “MASP-2 INHIBITORS AND METHODS OF USE” (Omeros Corporation, priority 2023, published 2025).
